Source: US8158792B2, “Spiropiperidines for use as tryptase inhibitors” (Janssen Pharmaceutica N.V., priority 2007, dated 2012)

Target: human lung tryptase
Experiment: β-Tryptase In-Vitro Enzyme Assay
Format: biochemical
Conditions: human lung tryptase 1 nM, substrate H-D-HHT-Ala-Arg-pNa 500 μM, pH 7.4, room temperature
Method: The β-tryptase assay was conducted with human lung tryptase (Cortex Biochem #CP3033) in an aqueous buffer (10 mM Tris, 10 mM Hepes, 150 mM NaCl, 0.1% PEG 8000, pH 7.4) using the chromogenic substrate H-D-HHT-Ala-Arg-pNa. […] Percent inhibition was calculated by comparing the initial reaction velocity of samples without inhibitor to those with inhibitor. The initial reaction velocities were analyzed using Microsoft Excel.

| Structure (SMILES) | IC50 |
| --- | --- |
| NCc1ccc2c(c1)C1(CCN(C(=O)/C=C/c3ccc(Cl)cc3)CC1)CO2 [Cpd 165, (E)-1-(4-chloro-phenylethenyl)carbonyl-5′-aminomethyl-spiro[piperidine-4,3′-(2H)-benzo[b]furan]] | 380 nM |
| NCc1ccc2c(c1)C1(CCN(C(=O)/C=C/c3cccc(OC(F)(F)F)c3)CC1)CO2 [Cpd 167, (E)-1-(3-trifluoromethoxy-phenylethenyl)carbonyl-5′-aminomethyl-spiro[piperidine-4,3′-(2H)-benzo[b]furan]] | 600 nM |
| CS(=O)(=O)c1ccc(C(=O)N2CCC3(CC2)COc2ccc(CN)cc23)s1 [Cpd 169, 1-(5-methylsulfonyl-thien-2-yl)carbonyl-5′-aminomethyl-spiro[piperidine-4,3′-(2H)-benzo[b]furan]] | 1600 nM |
| NCc1ccc2c(c1)C1(CCN(C(=O)c3sc4cc(F)ccc4c3Cl)CC1)CO2 [Cpd 171, 1-(3-chloro-6-fluoro-benzo[b]thien-2-yl)carbonyl-5′-aminomethyl-spiro[piperidine-4,3′-(2H)-benzo[b]furan]] | 170 nM |
| CC(C)(C)c1ccc(OCc2ccc(C(=O)N3CCC4(CC3)COc3ccc(CN)cc34)o2)cc1 [Cpd 178, 1-[5-(4-tert-butyl-phenoxymethyl)-furan-2-yl]carbonyl-5′-aminomethyl-spiro[piperidine-4,3′-(2H)-benzo[b]furan]] | 440 nM |
| Cc1cccc(/C=C/C(=O)N2CCC3(CC2)COc2ccc(CN)cc23)c1 [Cpd 179, (E)-1-(3-methyl-phenylethenyl)carbonyl-5′-aminomethyl-spiro[piperidine-4,3′-(2H)-benzo[b]furan]] | 260 nM |
| Cc1ccc(/C=C/C(=O)N2CCC3(CC2)COc2ccc(CN)cc23)cc1 [Cpd 180, (E)-1-(4-methyl-phenylethenyl)carbonyl-5′-aminomethyl-spiro[piperidine-4,3′-(2H)-benzo[b]furan]] | 780 nM |
| C/C(=C/c1ccccc1)C(=O)N1CCC2(CC1)COc1ccc(CN)cc12 [Cpd 181, (Z)-1-(1-methyl-2-phenylethenyl)carbonyl-5′-aminomethyl-spiro[piperidine-4,3′-(2H)-benzo[b]furan]] | 1700 nM |
| NCc1ccc2c(c1)C1(CCN(C(=O)/C=C/c3ccc(F)cc3)CC1)CO2 [Cpd 182, (E)-1-(4-fluoro-phenylethenyl)carbonyl-5′-aminomethyl-spiro[piperidine-4,3′-(2H)-benzo[b]furan]] | 740 nM |
| COc1ccccc1/C=C\C(=O)N1CCC2(CC1)COc1ccc(CN)cc12 [Cpd 183, (Z)-1-(2-methoxy-phenylethenyl)carbonyl-5′-aminomethyl-spiro[piperidine-4,3′-(2H)-benzo[b]furan]] | 5800 nM |
| COc1cccc(/C=C/C(=O)N2CCC3(CC2)COc2ccc(CN)cc23)c1 [Cpd 184, (E)-1-(3-methoxy-phenylethenyl)carbonyl-5′-aminomethyl-spiro[piperidine-4,3′-(2H)-benzo[b]furan]] | 210 nM |
| COc1ccc(/C=C/C(=O)N2CCC3(CC2)COc2ccc(CN)cc23)cc1 [Cpd 185, (E)-1-(4-methoxy-phenylethenyl)carbonyl-5′-aminomethyl-spiro[piperidine-4,3′-(2H)-benzo[b]furan]] | 1500 nM |
| NCc1ccc2c(c1)C1(CCN(C(=O)/C=C/c3ccc4c(c3)OCO4)CC1)CO2 [Cpd 187, (E)-1-(benzodioxol-5-ylethenyl)carbonyl-5′-aminomethyl-spiro[piperidine-4,3′-(2H)-benzo[b]furan]] | 790 nM |
| NCc1ccc2c(c1)C1(CCN(C(=O)C=C3c4ccccc4-c4ccccc43)CC1)CO2 [Cpd 189, 1-(1-oxo-2-fluoren-9-ylidene-ethyl)-5′-aminomethyl-spiro[piperidine-4,3′-(2H)-benzo[b]furan]] | 380 nM |
| NCc1ccc2c(c1)C1(CCN(C(=O)/C(=C/c3ccccc3)c3ccccc3)CC1)CO2 [Cpd 190, (E)-1-(1-phenyl-2-phenylethenyl)carbonyl-5′-aminomethyl-spiro[piperidine-4,3′-(2H)-benzo[b]furan]] | 590 nM |
| Cc1ccccc1/C=C/C(=O)N1CCC2(CC1)COc1ccc(CN)cc12 [Cpd 191, (E)-1-(2-methyl-phenylethenyl)carbonyl-5′-aminomethyl-spiro[piperidine-4,3′-(2H)-benzo[b]furan]] | 250 nM |
| Cn1c(C(=O)N2CCC3(CC2)COc2ccc(CN)cc23)cc2ccccc21 [Cpd 193, 1-(1-methyl-indol-2-yl)carbonyl-5′-aminomethyl-spiro[piperidine-4,3′-(2H)-benzo[b]furan]] | 360 nM |
| NCc1ccc2c(c1)C1(CCN(C(=O)c3cc4ccccc4oc3=O)CC1)CO2 [Cpd 196, 1-(2-oxo-(2H)-chromen-3-yl)carbonyl-5′-aminomethyl-spiro[piperidine-4,3′-(2H)-benzo[b]furan]] | 680 nM |
| COc1cccc2c1OCC(C(=O)N1CCC3(CC1)COc1ccc(CN)cc13)=C2 [Cpd 197, 1-(8-methoxy-(2H)-chromen-3-yl)carbonyl-5′-aminomethyl-spiro[piperidine-4,3′-(2H)-benzo[b]furan]] | 230 nM |

These reach a lower IC50. Values come first.

| IC50 | Structure (SMILES) |
| --- | --- |
| 79 nM | NCc1ccc2c(c1)C1(CCN(C(=O)/C(F)=C/c3ccccc3)CC1)CO2 [Cpd 162, (Z)-1-(1-fluoro-2-phenylethenyl)carbonyl-5′-aminomethyl-spiro[piperidine-4,3′-(2H)-benzo[b]furan]] |
| 54 nM | NCc1ccc2c(c1)C1(CCN(C(=O)c3cc4c(s3)CCCC4)CC1)CO2 [Cpd 163, 1-(5,6,7-trihydro-4H-benzo[b]thien-2-yl)carbonyl-5′-aminomethyl-spiro[piperidine-4,3′-(2H)-benzo[b]furan]] |
| 140 nM | NCc1ccc2c(c1)C1(CCN(C(=O)/C=C/c3cccc(Cl)c3)CC1)CO2 [Cpd 164, (E)-1-(3-chloro-phenylethenyl)carbonyl-5′-aminomethyl-spiro[piperidine-4,3′-(2H)-benzo[b]furan]] |
| 71 nM | NCc1ccc2c(c1)C1(CCN(C(=O)c3sc4ccccc4c3Cl)CC1)CO2 [Cpd 166, 1-(3-chloro-benzo[b]thien-2-yl)carbonyl-5′-aminomethyl-spiro[piperidine-4,3′-(2H)-benzo[b]furan]] |
| 48 nM | NCc1ccc2c(c1)C1(CCN(C(=O)c3cc4c(F)cccc4s3)CC1)CO2 [Cpd 168, 1-(4-fluoro-benzo[b]thien-2-yl)carbonyl-5′-aminomethyl-spiro[piperidine-4,3′-(2H)-benzo[b]furan]] |
| 8.3 nM | Cc1ccc(C#Cc2ccc(C(=O)N3CCC4(CC3)COc3ccc(CN)cc34)o2)cc1 [Cpd 170, 1-[5-(4-methyl-phenylethynyl)-furan-2-yl]carbonyl-5′-aminomethyl-spiro[piperidine-4,3′-(2H)-benzo[b]furan]] |
| 7.2 nM | Cc1ccc(C)c(C#Cc2ccc(C(=O)N3CCC4(CC3)COc3ccc(CN)cc34)o2)c1 [Cpd 172, 1-[5-(2,5-dimethyl-phenylethynyl)-furan-2-yl]carbonyl-5′-aminomethyl-spiro[piperidine-4,3′-(2H)-benzo[b]furan]] |
| 13 nM | COc1ccccc1C#Cc1ccc(C(=O)N2CCC3(CC2)COc2ccc(CN)cc23)o1 [Cpd 173, 1-[5-(2-methoxy-phenylethynyl)-furan-2-yl]carbonyl-5′-aminomethyl-spiro[piperidine-4,3′-(2H)-benzo[b]furan]] |
| 17 nM | Cc1ccc(C)c(OCc2ccc(C(=O)N3CCC4(CC3)COc3ccc(CN)cc34)o2)c1 [Cpd 174, 1-[5-(2,5-dimethyl-phenoxymethyl)-furan-2-yl]carbonyl-5′-aminomethyl-spiro[piperidine-4,3′-(2H)-benzo[b]furan]] |
| 58 nM | NCc1ccc2c(c1)C1(CCN(C(=O)c3sc4cccc(Cl)c4c3Cl)CC1)CO2 [Cpd 175, 1-(3,4-dichloro-benzo[b]thien-2-yl)carbonyl-5′-aminomethyl-spiro[piperidine-4,3′-(2H)-benzo[b]furan]] |
| 41 nM | NCc1ccc2c(c1)C1(CCN(C(=O)c3ccc(C#Cc4cc(F)cc(F)c4)o3)CC1)CO2 [Cpd 176, 1-[5-(3,5-difluoro-phenylethynyl)-furan-2-yl]carbonyl-5′-aminomethyl-spiro[piperidine-4,3′-(2H)-benzo[b]furan]] |
| 26 nM | NCc1ccc2c(c1)C1(CCN(C(=O)c3ccc(C#Cc4cccc5ccccc45)o3)CC1)CO2 [Cpd 177, 1-(5-naphthalen-1-ylethynyl-furan-2-yl)carbonyl-5′-aminomethyl-spiro[piperidine-4,3′-(2H)-benzo[b]furan]] |
| 53 nM | NCc1ccc2c(c1)C1(CCN(C(=O)/C=C/c3ccccc3Cl)CC1)CO2 [Cpd 186, (E)-1-(2-chloro-phenylethenyl)carbonyl-5′-aminomethyl-spiro[piperidine-4,3′-(2H)-benzo[b]furan]] |
| 130 nM | NCc1ccc2c(c1)C1(CCN(C(=O)/C=C/c3cccc4ccccc34)CC1)CO2 [Cpd 188, (E)-1-(naphthalen-1-ylethenyl)carbonyl-5′-aminomethyl-spiro[piperidine-4,3′-(2H)-benzo[b]furan]] |
| 150 nM | CC1=C(C(=O)N2CCC3(CC2)COc2ccc(CN)cc23)Cc2ccccc21 [Cpd 192, 1-(1-methyl-3H-inden-2-yl)carbonyl-5′-aminomethyl-spiro[piperidine-4,3′-(2H)-benzo[b]furan]] |
| 150 nM | COc1ccccc1/C=C/C(=O)N1CCC2(CC1)COc1ccc(CN)cc12 [Cpd 194, (E)-1-(2-methoxy-phenylethenyl)carbonyl-5′-aminomethyl-spiro[piperidine-4,3′-(2H)-benzo[b]furan]] |
| 120 nM | NCc1ccc2c(c1)C1(CCN(C(=O)/C=C/c3c(F)cccc3F)CC1)CO2 [Cpd 195, (E)-1-(2,6-difluoro-phenylethenyl)carbonyl-5′-aminomethyl-spiro[piperidine-4,3′-(2H)-benzo[b]furan]] |
| 73 nM | NCc1ccc2c(c1)C1(CCN(C(=O)c3ccc(Br)s3)CC1)CO2 [Cpd 198, 1-(5-bromo-thien-2-yl)carbonyl-5′-aminomethyl-spiro[piperidine-4,3′-(2H)-benzo[b]furan]] |
